Experimental data: patent US11021476B2, “Pyrroloquinoline quinone monosodium and method for producing the same, and composition comprising the same” (Mitsubishi Gas Chemical Company, Inc., priority 2016, dated 2021)

What was measured:
[1] = Bulk density measurement; assay type: physicochemical; conditions: 10 mL volumetric flask
Experimental: Bulk density was measured using a 10 mL volumetric flask.

[2] = Suspension fluidity test; assay type: physicochemical; conditions: 100 g/L in water, mixed at room temperature, observed at 4° C.
[3] = Thermal stability test (70° C. color change test); assay type: physicochemical; conditions: 1 mg crystals in 70° C. oven
Experimental: 1 mg of the crystals obtained in each of Examples 1 and 6 and Comparative Example 2 were placed in a 70° C. oven, and a change in color after 2 hours was observed.

[4] = Thermal stability test (solubility change at 180° C. for 10 minutes); assay type: physicochemical; conditions: for State of dissolution after heating at 180° C. for 10 minutes (with 100 before heating): solubility from absorbance at 330 nm, solubility before heating = 100; for State of dissolution after heating at 180° C. for 10 minutes: 1 mg heated on hot plate, then 10 mL water, stirred 15 minutes
Experimental: Whether the solubility of crystals changed by heat treatment was tested. […] At this time, the state was recorded. The aqueous solution after the stirring was filtered through a 0.5 μm filter and diluted to 1/10, and absorbance at 330 nm was measured. A change in the solubility of the crystals before and after the heat treatment was examined by this measurement.

[5] = Reaction with powdered green tea; assay type: physicochemical; conditions: 2 mg powdered green tea + 1 mg crystals + 100 μL water
Experimental: 2 mg of powdered green tea and 1 mg of the crystals obtained in each of Examples 1 and 6 and Comparative Example 2 were mixed. As a model in which the mixed powder was wet, 100 μL of water was added. […] The crystals 2 were very stable and excellent in powder mixing.

[6] = Test of penetration into skin; conditions: 5 mg crystals on pig skin, 80 minutes at 37° C.; [(untreated − treated)/untreated brightness]×100
Experimental: The skin of a pig was washed with tap water, and the water was completely wiped off. 5 mg of one of crystals was brought into contact with this skin of the pig and then fixed to the skin by wrapping in plastic wrap. After 80 minutes at 37° C., the tape was peeled, and the skin was washed with tap water to remove the test composition adhering to the skin surface. Evaluation was performed by capturing an image of the test composition by a scanner and measuring a change in the brightness of the skin using image software (product name: Paint (software included with Windows (registered trademark) XP, manufactured by Microsoft Corporation). At this time, the change in the brightness of the skin was calculated by [[brightness of untreated skin−brightness after treatment]/[brightness of untreated skin]]×100.

[7] = Solubility and color of mixtures; assay type: physicochemical
Experimental: Powders were mixed in a proportion shown in Table 3, and the color of the powder was recorded. 1 mL of water was added to a crystal mass of 10 mg at room temperature. […] The aqueous solution after the cooling was centrifuged, and the supernatant liquid was removed. This was diluted with a phosphate buffer, and the solubility was calculated from absorbance at 330 nm.

O=C(O)c1cc(C(=O)[O-])c2c(n1)C(=O)C(=O)c1cc(C(=O)O)[nH]c1-2.[Na+] [Comparative Example 2, reference compound]
Bulk specific gravity [1]: 0.20 g/mL
Fluidity when crystals are added to water [2]: No
Change in color after 2 hours at 70° C. [3]: Change to black
State of dissolution after heating at 180° C. for 10 minutes (with 100 before heating) [4]: 71
Color change of tea leaves [5]: changed color to orange
Penetration (change in the brightness of the skin) [6]: 1.6

O=C(O)c1cc(C(=O)O)c2c(n1)C(=O)C(=O)c1cc(C(=O)O)[nH]c1-2.[Na] [Example 1, Pyrroloquinoline Quinone Monosodium]
Bulk specific gravity [1]: 0.29 g/mL
Fluidity when crystals are added to water [2]: Yes
Color in form of powder [7]: Deep red
solubility at 30 min ([7]; thermodynamic from solid, 10 mg in 1 mL water, ultrasonic 5 min, 70 degrees 10 min, cooled 30 min at room temperature, absorbance at 330 nm): 4.5 mM
Change in color after 2 hours at 70° C. [3]: No change
State of dissolution after heating at 180° C. for 10 minutes [4]: All dissolve
State of dissolution after heating at 180° C. for 10 minutes (with 100 before heating) [4]: 82
Color change of tea leaves [5]: changed color to orange
Penetration (change in the brightness of the skin) [6]: 8.4

O=C(O)c1cc(C(=O)O)c2c(n1)C(=O)C(=O)c1cc(C(=O)O)[nH]c1-2.[Na].[Na] [Raw material, pyrroloquinoline quinone disodium, reference compound]
Color in form of powder [7]: Red

Dipyrroloquinoline quinone monosodium [Example 7]
Bulk specific gravity [1]: 0.27 g/mL
Fluidity when crystals are added to water [2]: Yes
Solubility ([7]; 10 mg in 1 mL water, ultrasonic 5 min, 70 degrees 10 min, cooled 30 min at room temperature, absorbance at 330 nm): 2.1 mM
Color in form of powder [7]: Black
Change in color after 2 hours at 70° C. [3]: No change
State of dissolution after heating at 180° C. for 10 minutes [4]: All dissolve
State of dissolution after heating at 180° C. for 10 minutes (with 100 before heating) [4]: 100
Color change of tea leaves [5]: did not change color
Penetration (change in the brightness of the skin) [6]: 4.3
